The test system of this experiment is gene encoding relaxin. As to the kind of experiment: AFFYMETRIX chicken genome array, oviduct RNA of hens fed selenium: relaxin. In kind it is in vivo. The settings on record: 0.3 ppm selenium in diet, over forty weeks, relative to selenium deficient animals. The text has this: In an effort to examine possible benefits of administration of selenium on female reproductive performance, hens were randomly selected from a broiler-breeder flock housed at Coldstream poultry facility, University of Kentucky. The hens were maintained on a selenium-deficient diet from 6 weeks of age until 22 weeks of age and were then placed on the following dietary treatments for over forty weeks until the time of sampling: 1) Control, selenium-deficient, Torula yeast-based diet (0.02 ppm selenium); 2) The control diet supplemented with 0.3 ppm selenium from sodium selenite; and 3) The control diet supplemented with 0.3 ppm selenium from SEL-PLEX. Hens were taken from each of the three experimental groups, their oviducts removed, flash-frozen and stored at −80° C. prior to RNA isolation.
Labeled RNA preparations from oviduct were hybridized with AFFYMETRIX chicken genome arrays containing 38,000 probe sets using standard methodology.

Consider `O=[Se](O)O` [sodium selenite], for which the “relaxin gene expression, upregulation” value was “no significant effect”.
